# Measurements taken from ChEMBL document CHEMBL3108747, “Synthesis and evaluation of novel cyclic Peptide inhibitors of lysine-specific demethylase 1” (ACS Med Chem Lett, 2014).
# Experiments:
# cells = conditions: Homo sapiens, Calu-6, 72 h
# Description: Cytotoxicity against human Calu6 cells assessed as cell viability after 72 hrs by MTS assay
# MCF7 = assay: cells; conditions: Homo sapiens, MCF7, 72 h
# Description: Cytotoxicity against human MCF7 cells assessed as cell viability after 72 hrs by MTS assay
IC50 (cells) [µM],IC50 (MCF7) [µM],Compound
125,157,CSCC[C@H](NC(=O)[C@@H](NC(=O)[C@H](CCCNC(=N)N)NC(=O)[C@H](C)N)[C@@H](C)O)C(=O)N[C@H]1CCCCNC(=O)CC[C@@H](C(=O)N[C@H](C(=O)NCC(=O)NCC(=O)N[C@@H](CCCCN)C(=O)N[C@@H](C)C(=O)N2CCC[C@H]2C(=O)N[C@@H](CCCNC(=N)N)C(=O)N[C@@H](CCCCN)C(=O)N[C@@H](CCC(N)=O)C(=O)N[C@@H](CC(C)C)C(=O)N[C@@H](C)C(N)=O)[C@@H](C)O)NC(=O)[C@H](CCCCN)NC(=O)[C@H](CCCNC(=N)N)NC(=O)[C@H](C)NC(=O)[C@H]([C@@H](C)O)NC1=O
10.9,,N=C(NCCCNCCCCCCCNCCCNC(=N)NC(=N)NCCC(c1ccccc1)c1ccccc1)NC(=N)NCCC(c1ccccc1)c1ccccc1
